From patent US20220323455A1, “FUSED HETEROCYCLIC DERIVATIVES AS ANTIVIRAL AGENTS” (priority 2019, published 2022) come the findings set out here.

The experiment concerns HBV. The experiment is described as follows: HBV replication inhibition assay (BDNA assay) in HepG2.2.15 cells. It is filed as cell-based, Hepatitis B virus. Particulars: 6 days, encapsidated HBV DNA in supernatant. The procedure: HBV replication inhibition by the disclosed compounds were determined in cells infected or transfected with HBV or cells with stably integrated HBV, such as HepG2.2.15 cells (Sells et al. 1987). In this example, HepG2.2.15 cells were maintained in cell culture medium containing 10% fetal bovine serum (FBS), Geneticin, L-glutamine, penicillin and streptomycin. HepG2.2.15 cells were seeded in 96-well plates at a density of 40,000 cells/well and were treated with serially diluted compounds at a final DMSO concentration of 0.5% either alone or in combination by adding drugs in a checker box format. Cells were incubated with compounds for three days, after which medium was removed and fresh medium containing compounds was added to cells and incubated for another three days. At day 6, supernatant was removed and treated with DNase at 37° C. for 60 minutes, followed by enzyme inactivation at 75° C. for 15 minutes. Encapsidated HBV DNA was released from the virions and covalently linked HBV polymerase by incubating in lysis buffer (Affymetrix QS0010) containing 2.5 μg proteinase K at 50° C. for 40 minutes. HBV DNA was denatured by addition of 0.2 M NaOH and detected using a branched DNA (BDNA) QuantiGene assay kit according to manufacturer recommendation (Affymetrix). HBV DNA levels were also quantified using qPCR, based on amplification of encapsidated HBV DNA extraction with QuickExtraction Solution (Epicentre Biotechnologies) and amplification of HBV DNA using HBV specific PCR probes that can hybridize to HBV DNA and a fluorescently labeled probe for quantitation. In addition, cell viability of HepG2.2.15 cells incubated with test compounds alone or in combination was determined by using CellTitre-Glo reagent according to the manufacturer protocol (Promega). The mean background signal from wells containing only culture medium was subtracted from all other samples, and percent inhibition at each compound concentration was calculated by normalizing to signals from HepG2.2.15 cells treated with 0.5% DMSO using equation E1.
% inhibition(DMSOave−Xi)DMSOave×100% E1:
where DMSOave is the mean signal calculated from the wells that were treated with DMSO control (0% inhibition control) and Xi is the signal measured from the individual wells. EC50 values, effective concentrations that achieved 50% inhibitory effect, were determined by non-linear fitting using Graphpad Prism software (San Diego, Calif.) and equation E2.
Y=Ymin+(Ymax−Ymin)/(1+10(Log EC50−X)×HillSlope) E2:
where Y represents percent inhibition values and X represents the logarithm of compound concentrations.
Selected disclosed compounds were assayed in the HBV replication assay (BDNA assay), as described above, and a representative group of these active compounds is shown in Table 5.

In general, pEC50 refers to the negative decadic logarithm of the EC50, by convention in mol/L.

Molecules are shown by their SMILES. pEC50: −log10 of the molar value.

On to `C[C@@H]1Cc2nn3c(c2CN1C(=O)Nc1ccnc(Br)c1F)C(F)(F)CCC(CO)C3` (single isomer, unassigned) [Example 77, (3R,8S*)—N-(2-Bromo-3-fluoropyridin-4-yl)-11,11-difluoro-8-(hydroxymethyl)-3-methyl-3,4,8,9,10,11-hexahydro-1H-pyrido[4′,3′:3,4]pyrazolo[1,5-a]azepine-2(7H)-carboxamide], for which the pEC50 was 7.85.

With `C[C@@H]1Cc2nn3c(c2CN1C(=O)Nc1ccnc(C(F)F)c1F)C(F)(F)CCC(CO)C3` (single isomer, unassigned) [Example 78, (3R,8S*)—N-(2-(Difluoromethyl)-3-fluoropyridin-4-yl)-11,11-difluoro-8-(hydroxymethyl)-3-methyl-3,4,8,9,10,11-hexahydro-1H-pyrido[4′,3′:3,4]pyrazolo[1,5-a]azepine-2(7H)-carboxamide], the pEC50 is 7.52. In the case of `C[C@@H]1Cc2nn3c(c2CN1C(=O)Nc1ccc(F)c(C#N)c1)C(F)(F)CCC(CO)C3` (single isomer, unassigned) [Example 79, (3R,8R*)—N-(3-Cyano-4-fluorophenyl)-11,11-difluoro-8-(hydroxymethyl)-3-methyl-3,4,8,9,10,11-hexahydro-1H-pyrido[4′,3′:3,4]pyrazolo[1,5-a]azepine-2(7H)-carboxamide], the pEC50 (Hepatitis B virus, HepG2.2.15, 144 h) is 9.00. For the compound `C[C@@H]1Cc2nn3c(c2CN1C(=O)Nc1ccc(F)c(C(F)(F)F)c1)C(F)(F)CCC(CO)C3` (single isomer, unassigned) [Example 80, (3R,8R*)-11,11-Difluoro-N-(4-fluoro-3-(trifluoromethyl)phenyl)-8-(hydroxymethyl)-3-methyl-3,4,8,9,10,11-hexahydro-1H-pyrido[4′,3′:3,4]pyrazolo[1,5-a]azepine-2(7H)-carboxamide], the pEC50 was 9.00.

As to `C[C@@H]1Cc2nn3c(c2CN1C(=O)Nc1ccnc(Br)c1F)C(F)(F)CCC(CO)C3` (single isomer, unassigned) [Example 81, (3R,8R*)—N-(2-Bromo-3-fluoropyridin-4-yl)-11,11-difluoro-8-(hydroxymethyl)-3-methyl-3,4,8,9,10,11-hexahydro-1H-pyrido[4′,3′:3,4]pyrazolo[1,5-a]azepine-2(7H)-carboxamide], the pEC50 was 8.70.

With `C[C@@H]1Cc2nn3c(c2CN1C(=O)Nc1ccnc(C(F)F)c1F)C(F)(F)CCC(CO)C3` (single isomer, unassigned) [Example 82, (3R,8R*)—N-(2-(Difluoromethyl)-3-fluoropyridin-4-yl)-11,11-difluoro-8-(hydroxymethyl)-3-methyl-3,4,8,9,10,11-hexahydro-1H-pyrido[4′,3′:3,4]pyrazolo[1,5-a]azepine-2(7H)-carboxamide], the pEC50 is 9.00.

As for `C[C@@H]1Cc2nn3c(c2CN1C(=O)Nc1ccnc(C(F)F)c1F)C(F)(F)CCC(O)(CF)C3` (single isomer, unassigned) [Example 85, (3R,8R*)—N-(2-(Difluoromethyl)-3-fluoropyridin-4-yl)-11,11-difluoro-8-(fluoromethyl)-8-hydroxy-3-methyl-3,4,8,9,10,11-hexahydro-1H-pyrido[4′,3′:3,4]pyrazolo[1,5-a]azepine-2(7H)-carboxamide], the pEC50 is 7.35. For `C[C@@H]1Cc2nn3c(c2CN1C(=O)Nc1ccc(F)c(C#N)c1)C(F)(F)CCC(O)(CF)C3` (single isomer, unassigned) [Example 86, (3R,8S*)—N-(3-Cyano-4-fluorophenyl)-11,11-difluoro-8-(fluoromethyl)-8-hydroxy-3-methyl-3,4,8,9,10,11-hexahydro-1H-pyrido[4′,3′:3,4]pyrazolo[1,5-a]azepine-2(7H)-carboxamide], the pEC50 was 7.70.

For `C[C@@H]1Cc2nn3c(c2CN1C(=O)Nc1ccnc(Br)c1F)C(F)(F)CCC(O)(CF)C3` (single isomer, unassigned) [Example 87, (3R,8S*)—N-(2-Bromo-3-fluoropyridin-4-yl)-11,11-difluoro-8-(fluoromethyl)-8-hydroxy-3-methyl-3,4,8,9,10,11-hexahydro-1H-pyrido[4′,3′:3,4]pyrazolo[1,5-a]azepine-2(7H)-carboxamide], the pEC50 was 7.41. For `C[C@@H]1Cc2nn3c(c2CN1C(=O)Nc1ccnc(C(F)F)c1F)C(F)(F)CCC(O)(CF)C3` (single isomer, unassigned) [Example 88, (3R,8S*)—N-(2-(Difluoromethyl)-3-fluoropyridin-4-yl)-11,11-difluoro-8-(fluoromethyl)-8-hydroxy-3-methyl-3,4,8,9,10,11-hexahydro-1H-pyrido[4′,3′:3,4]pyrazolo[1,5-a]azepine-2(7H)-carboxamide], the pEC50 was 6.93. Still for that read-out and setting: the value for `C[C@@H]1Cc2nn3c(c2CN1C(=O)Nc1ccnc(C(F)F)c1F)C(F)(F)CCC(O)(CC#N)C3` (single isomer, unassigned) [Example 90, (3R,8S*)-8-(Cyanomethyl)-N-(2-(difluoromethyl)-3-fluoropyridin-4-yl)-11,11-difluoro-8-hydroxy-3-methyl-3,4,8,9,10,11-hexahydro-1H-pyrido[4′,3′:3,4]pyrazolo[1,5-a]azepine-2(7H)-carboxamide] was 7.27; that for `C[C@@H]1Cc2nn3c(c2CN1C(=O)Nc1ccnc(Br)c1F)C(F)(F)CCC(O)(CC#N)C3` (single isomer, unassigned) [Example 91, (3R,8R*)—N-(2-Bromo-3-fluoropyridin-4-yl)-8-(cyanomethyl)-11,11-difluoro-8-hydroxy-3-methyl-3,4,8,9,10,11-hexahydro-1H-pyrido[4′,3′:3,4]pyrazolo[1,5-a]azepine-2(7H)-carboxamide] was 7.52.

For `C[C@@H]1Cc2nn3c(c2CN1C(=O)Nc1ccnc(C(F)F)c1F)C(F)(F)CCC(O)(CC#N)C3` (single isomer, unassigned) [Example 92, (3R,8R*)-8-(Cyanomethyl)-N-(2-(difluoromethyl)-3-fluoropyridin-4-yl)-11,11-difluoro-8-hydroxy-3-methyl-3,4,8,9,10,11-hexahydro-1H-pyrido[4′,3′:3,4]pyrazolo[1,5-a]azepine-2(7H)-carboxamide], the pEC50 is 6.72. Still for that read-out and setting: next, `C[C@@H]1Cc2nn3c(c2CN1C(=O)Nc1ccc(F)c(C#N)c1)C(F)(F)CCC(O)(COCC(F)F)C3` (single isomer, unassigned) [Example 93, (3R,8R*)—N-(3-Cyano-4-fluorophenyl)-8-((2,2-difluoroethoxy)methyl)-11,11-difluoro-8-hydroxy-3-methyl-3,4,89,10,11-hexahydro-1H-pyrido[4′,3′:3,4]pyrazolo[1,5-a]azepine-2(7H)-carboxamide]: 7.35; `C[C@@H]1Cc2nn3c(c2CN1C(=O)Nc1ccc(F)c(C#N)c1)C(F)(F)CCC(O)(COCC(F)F)C3` (single isomer, unassigned) [Example 94, (3R,8S*)—N-(3-Cyano-4-fluorophenyl)-8-((2,2-difluoroethoxy)methyl)-11,11-difluoro-8-hydroxy-3-methyl-3,4,8,9,10,11-hexahydro-1H-pyrido[4′,3′:3,4]pyrazolo[1,5-a]azepine-2(7H)-carboxamide]: 7.82; `C#CC1(O)CCC(F)(F)c2c3c(nn2C1)C[C@@H](C)N(C(=O)Nc1ccc(F)c(C#N)c1)C3` (single isomer, unassigned) [Example 95, (3R,8R*)—N-(3-Cyano-4-fluorophenyl)-8-ethynyl-11,11-difluoro-8-hydroxy-3-methyl-3,4,8,9,10,11-hexahydro-1H-pyrido[4′,3′:3,4]pyrazolo[1,5-a]azepine-2(7H)-carboxamide]: 7.89.
